Test results reported in patent US20160102103A1, “SUBSTITUTED PYRIDINE COMPOUNDS HAVING HERBICIDAL ACTIVITY” (BASF SE, priority 2013, published 2016).

Columns and labels:
Assay type in all cases: in vivo
Abutilon theophrasti = experiment: greenhouse post-emergence herbicidal test, ABUTH; conditions: scale from 0 to 100
Excerpt: (§1) The seeds of the test plants were sown separately for each species. For the post-emergence treatment, the test plants were first grown to a height of 3 to 15 cm, depending on the plant habit, and only then treated with the active ingredients which had been suspended or emulsified in water. For this purpose, the test plants were either sown directly and grown in the same containers, or they were first grown separately as seedlings and transplanted into the test containers a few days prior to treatment. Depending on the species, the plants were kept at 10-25° C. or 20-35° C., respectively. The test period extended over 2 to 4 weeks. During this time, the plants were tended, and their response to the individual treatments was evaluated. Evaluation was carried out using a scale from 0 to 100. 100 means no emergence of the plants, or complete destruction of at least the aerial moieties, and 0 means no damage, or normal course of growth. A good herbicidal activity is given at values of at least 70 and a very good herbicidal activity is given at values of at least 85. The plants used in the greenhouse experiments were of the following species: [table]

Capsella bursa-pastoris = experiment: greenhouse post-emergence herbicidal test, CAPBP; conditions: application rate 0.25 kg/ha, scale from 0 to 100
Excerpt: as §1

Echinocloa crus-galli = experiment: greenhouse post-emergence herbicidal test, ECHCG; conditions: scale from 0 to 100
Excerpt: as §1

Setaria viridis = experiment: greenhouse post-emergence herbicidal test, SETVI; conditions: scale from 0 to 100
Excerpt: as §1

Thlaspi arvense = experiment: greenhouse post-emergence herbicidal test, THLAR; conditions: application rate 0.25 kg/ha, scale from 0 to 100
Excerpt: as §1

Amaranthus retroflexus = experiment: greenhouse post-emergence herbicidal test, AMARE; conditions: application rate 0.271 kg/ha, scale from 0 to 100
Excerpt: as §1

Setaria faberi = experiment: greenhouse post-emergence herbicidal test, SETFA; conditions: application rate 0.125 kg/ha, scale from 0 to 100
Excerpt: as §1

Polygonum convolvulus = experiment: greenhouse post-emergence herbicidal test, POLCO; conditions: application rate 0.125 kg/ha, scale from 0 to 100
Excerpt: as §1

`O=S1(=O)Cc2cccnc2C(O)=C1c1c(Cl)cncc1Cl` [Compound I-1] was tested, and the “herbicidal activity against ABUTH” value (Abutilon theophrasti; application rate 0.25 kg/ha) was “very good herbicidal activity (a very good herbicidal activity is given at values of at least 85)”.
For `CC1c2cccnc2C(OC(=O)C(C)(C)C)=C(c2c(Cl)cnc(Cl)c2Cl)S1(=O)=O` (stereo not shown) [Compound I-7], the “herbicidal activity against CAPBP” value (Capsella bursa-pastoris) was “very good herbicidal activity (a very good herbicidal activity is given at values of at least 85)”.
In the case of `CC(C)(C)C(=O)OC1=C(c2c(Cl)cnc(Cl)c2Cl)S(=O)(=O)C2(CC2)c2cccnc21` [Compound I-11], the “herbicidal activity against ECHCG” value (Echinocloa crus-galli; application rate 0.50 kg/ha) is reported as “very good herbicidal activity (a very good herbicidal activity is given at values of at least 85)”, the “herbicidal activity against SETVI” value (Setaria viridis; application rate 0.50 kg/ha) is reported as “very good herbicidal activity (a very good herbicidal activity is given at values of at least 85)” and the “herbicidal activity against ABUTH” value (Abutilon theophrasti; application rate 0.50 kg/ha) is reported as “very good herbicidal activity (a very good herbicidal activity is given at values of at least 85)”.
In the case of `O=S1(=O)C(c2c(Cl)cnc(Cl)c2Cl)=C(O)c2ncccc2C12CC2` [Compound I-12], the “herbicidal activity against THLAR” value (Thlaspi arvense) is reported as “very good herbicidal activity (a very good herbicidal activity is given at values of at least 85)”.
For `COc1c(Cl)ncc(Cl)c1C1=C(OC(=O)C(C)(C)C)c2ncccc2CS1(=O)=O` [Compound I-13], the “herbicidal activity against SETVI” value (Setaria viridis; application rate 0.25 kg/ha) was “good herbicidal activity (A good herbicidal activity is given at values of at least 70)”.
With `COc1c(Cl)ncc(Cl)c1C1=C(O)c2ncccc2C(C)(C)S1(=O)=O` [Compound I-16] the “herbicidal activity against ABUTH” value (Abutilon theophrasti; application rate 0.125 kg/ha) was “very good herbicidal activity (a very good herbicidal activity is given at values of at least 85)”.
In the case of `COc1c(Cl)ncc(Cl)c1C1=C(OC(=O)C(C)(C)C)c2ncccc2C2(CC2)S1(=O)=O` [Compound I-19], the “herbicidal activity against AMARE” value (Amaranthus retroflexus) is reported as “very good herbicidal activity (a very good herbicidal activity is given at values of at least 85)”, the “herbicidal activity against SETVI” value (Setaria viridis; application rate 0.271 kg/ha) is reported as “very good herbicidal activity (a very good herbicidal activity is given at values of at least 85)” and the “herbicidal activity against ABUTH” value (Abutilon theophrasti; application rate 0.271 kg/ha) is reported as “very good herbicidal activity (a very good herbicidal activity is given at values of at least 85)”.
With `O=S1(=O)Cc2cccnc2C(O)=C1c1c(F)cnc(Cl)c1Br` [Compound I-27] the “herbicidal activity against ECHCG” value (Echinocloa crus-galli; application rate 0.25 kg/ha) was “very good herbicidal activity (a very good herbicidal activity is given at values of at least 85)”.
`CC1(C)c2cccnc2C(O)=C(c2c(F)cnc(Cl)c2Br)S1(=O)=O` [Compound I-28] was tested, and the “herbicidal activity against SETFA” value (Setaria faberi) was “very good herbicidal activity (a very good herbicidal activity is given at values of at least 85)”.
In the case of `Cc1c(Cl)ncc(F)c1C1=C(O)c2ncccc2CS1(=O)=O` [Compound I-36], the “herbicidal activity against ECHCG” value (Echinocloa crus-galli; application rate 1.0 kg/ha) is reported as “good herbicidal activity (A good herbicidal activity is given at values of at least 70)”.
`CC1(C)c2cccnc2C(O)=C(c2c(Cl)cnc(Cl)c2F)S1(=O)=O` [Compound I-39] was tested, and the “herbicidal activity against POLCO” value (Polygonum convolvulus) was “good herbicidal activity (A good herbicidal activity is given at values of at least 70)”.
For `O=S1(=O)Cc2cccnc2C(O)=C1c1c(Br)cnc(Cl)c1F` [Compound I-40], the “herbicidal activity against ECHCG” value (Echinocloa crus-galli; application rate 0.125 kg/ha) was “good herbicidal activity (A good herbicidal activity is given at values of at least 70)”.
